Data published in patent US20240207282A1, “METHOD OF INCREASING CHAPERONE MEDIATED AUTOPHAGY BY STABILIZING THE INTERACTION OF RETINOIC ACID RECEPTOR-ALPHA AND AN INHIBITOR” (ALBERT EINSTEIN COLLEGE OF MEDICINE, priority 2021, published 2024).

Columns and labels:
[1] = Pharmacokinetics in mice (plasma and brain); assay type: in vivo, mouse; settings: mice; for brain to plasma ratio: i.v. or p.o.
Method: ICR (CD-1) male mice were fasted at least three hours and water was available ad libitum before the study. Animals were housed in a controlled environment, target conditions: temperature 18 to 29° C., relative humidity 30 to 70%. Temperature and relative humidity was monitored daily. An electronic time controlled lighting system was used to provide a 12 hr light/12 hr dark cycle. 3 mice for each indicated time point were administered 30 mg/Kg CA39 or CA77 by oral gavage or 1 mg/Kg CA39 or CA77 by intravenous injection using 30% PEG-400, 65% D5W (5% dextrose in water), 5% Tween-80 vehicle. Mice were sacrificed, and brain samples were harvested at 0 hr, 0.25 hr, 0.5 hr, 1 hr, 2 hr, 4 hr, 8 hr, 24 hr, and analyzed for CA39 or CA77 levels using LC-MS/MS. Pharmacokinetics parameters were calculated using Phoenix WinNonlin 6.3. Experiments performed at SIMM-SERVIER joint Biopharmacy Laboratory.

[2] = In vitro stability in liver microsomes; assay type: in vitro ADME; settings: human liver microsomes
Method: In vitro solubility in the following conditions A) HBSS/HEPES 10 mM/BSA 0.1% pH 6 B) HBSS/HEPES 10 mM/BSA 0.1% pH 7.4 C) TRIS/BSA 0.1% PBS (pH 7.4 and at indicated doses were measured by Nephelometry using the NEPHELOstar Galaxy apparatus (BMG Lab Technologies). In vitro stability in human, mouse and rat liver microsomes and permeability using a bidirectional permeability assay with CaCo-2 cells (pH 6.5/7.4) assays were performed with standard methodology and analyzed by LC-MS/MS. at SIMM-SERVIER joint Biopharmacy Laboratory. In silico ADME properties calculated by QikProp (Schrodinger, LLC) analysis and ADME predictions for CA39 (left) and CA77 (right).

CMA network = experiment: Comparative transcriptomic analysis / qPCR of CMA network; assay type: cell-based, mouse; settings: compared to AR7
Method: mRNA-qPCR: RNA was extracted from individual retinas. Total RNA from retinas was extracted using TRIzol Reagent (Invitrogen), and reverse transcription performed using the High-Capacity cDNA Reverse Transcription Kit (Applied Biosystems) according to the manufacturer's instructions. Quantitative real-time PCR was performed in a Light Cycler 480 Instrument (Roche) with Taqman Universal PCR Master Mix using Taqman assays (Life Tech-nologies). The following probes were used: Mm01184405_m1 (rhodopsin), F-5′-CTTAGCTTCTGGGATGC CCC-3′, R-5′-[…]-3′ (lamp2a) F-5′-AA GGACTCCTA TAGTGGG TGACGA-3′, R-5′-[…]-3′ (mouse β-actin).
Microarray: Total RNA of the treated cells was extracted using TRIzol (Invitrogen) and purified with RNeasy chromatography (Qiagen). Cy3-labeled RNA (0.6 μg) from each condition were hybridized to Agilent Mouse 8×60K. Data were processed using the oligo package and normalized using Robust Multiarray Average (RMA) method. Gene set was filtered to remove genes without Entrez or GO annotation (21912 genes out of 55682) and genes with an […]. The full microarray Gomez-Sintes et al. raw data will be deposited in GEO upon acceptance of the manuscript. Pathway analysis was performed using the STRING database ([…]).
CMA index was calculated using data set from Ly (J. Proteome Research (2016) 15: 1350-1359), Gao (2020), and Lane (2020). Briefly, each element of the CMA network was attributed a weight. As LAMP-2A is the rate limiting component of CMA, it was given a weight of 2. Every other element received a weight of 1. Then, every element was attributed direction score that is +1 or −1 based on the known effect of a given element on CMA activity. The score was then calculated as the weighted/directed average of expression counts of every element of the CMA network.

NIH3T3 = experiment: Macroautophagy activity (LC3-II flux, mCherry-GFP-LC3 reporter); assay type: cell-based, mouse; settings: 20 μM 16 h (LC3 flux)
Method: Macroautophagy activity: Cells were transduced with a lentiviral vector expressing mCherry-GPF-LC3^32, fixed and flux determined as the conversion of dual fluorescence puncta (autophagosomes) into only red fluorescent puncta (autolysosomes). Flux was also measured by immunoblot for LC3 in cells incubated for 6 h with 20 mM NH4Cl/100 μM leupeptin, by discounting the intensity of LC3 in non-treated cells from that in cells treated with the inhibitors.

human cells = experiment: CMA activity, KFERQ-PS-Dendra reporter in human cells; assay type: cell-based
Method: Cells: NIH3T3 mouse fibroblasts and the N2a neuroblastoma cell line were obtained from the American Type Culture Collection and were validated by genomic PCR. Primary human fibroblasts (GM01651) were from Coriell Repository. All the cells lines were tested for mycoplasma contamination using DNA staining protocol with Hoechst 33258 dye. Knock-down of NCoR1 was done using lentiviral mediated shRNA (SHCLNG-NM_011308) from the Sigma Mission library following standard procedures. Efficiency of knock-down was tested by immunoblot. Cell viability was measured using the CellTiter-Blue kit (Promega) 24 h after the addition of the different stressors according to manufacturer's instructions.
CMA activity: Cells were transduced with lentivirus carrying the KFERQ-PS-Dendra reporter as before. Cells were photoactivated by exposure to a 3.5 mA (current constant) light emitting diode (LED: Norlux, 405 nm) for 3 min and then plated in glass-bottom 96 well plates. At the desired times, cells were fixed with 4% PFA and imaged using high-content microscopy (Operetta system, Perkin Elmer). Images were quantified using the manufacturer's software in a minimum of 1,200 cells in 9 independent fields per well. […] To avoid con-funding effects for drug-induced changes in cell volume or adherence to the plate that could bring a fraction of the cells per field outside of focus, we set a threshold to count only cells that have at least 1/10 of the average number of […] detected in the untreated wells for each cell type (3-4 puncta/cell in the case of NIH3T3 and N2a cells and 5 puncta/cell in primary human fibroblasts). […] Slices were mounted in DAPI-Fluoromount-G to highlight the cell nucleus and allow quantification of puncta per cell. Images were acquired in x-y-z planes with an Axiovert 200 fluorescence microscope (Carl Zeiss Ltd) with a ×63 objective and 1.4 numerical aperture, mounted with an ApoTome.2 slider or with a Confocal microscope (TCS SP5; Leica) using an HCX Plan Apo CS×63.0 1.40 NA oil objective and the Leica Application Suite X (LAS X).

SMILES	blood brain barrier crossing [1]	half-life in brain ([1]; IV 1 mg/kg) [h]	half-life in brain ([1]; PO 30 mg/kg) [h]	half-life in plasma ([1]; PO 30 mg/kg) [h]	brain to plasma ratio [1]	metabolic stability [2]	predicted CMA activation score (CMA network)	effect on macroautophagy (NIH3T3)	CMA activation (human cells)	half-life ([1]; male, ICR (CD-1), mouse, plasma, intravenous, 1 mg/kg, route not printed (second pair of values), read-out: half-life in plasma (converted)) [h]
CC(=O)Nc1ccc(C2=Nc3ccc(Cl)cc3OC2)cc1 [CA77]	efficiently crossed the brain blood barrier	1.8	4.2	2.2	high	high to intermediate	higher	did not have the inhibitory effect on macroautophagy	efficiently activate CMA	
Clc1ccc2c(c1)OCC(c1ccc(-c3ccccc3)cc1)=N2 [CA39]	efficiently crossed the brain blood barrier	8	10	7.5	high	high to intermediate	higher	did not have the inhibitory effect on macroautophagy	efficiently activate CMA	8.2
